Measured values: patent US12503438B2, “Compounds for the treatment of kinase-dependent disorders” (Exelixis, Inc., priority 2019, dated 2025)

Columns and labels:
[1] = target: T1, Human Mer (Homo sapiens, UniProt Q12866); experiment: Human Mer kinase assay (33P-phosphoryl transfer radiometric, KinaseProfiler); settings: biochemical activity; 10 μM ATP
T1 construct: Human Mer (residues R557-E882 with H628Q and R794A, 0.7 nM); purchased Eurofins Pharma Discovery Services UK Limited (KinaseProfiler service)
T1 sequence (Q12866 557-882 limits assumed): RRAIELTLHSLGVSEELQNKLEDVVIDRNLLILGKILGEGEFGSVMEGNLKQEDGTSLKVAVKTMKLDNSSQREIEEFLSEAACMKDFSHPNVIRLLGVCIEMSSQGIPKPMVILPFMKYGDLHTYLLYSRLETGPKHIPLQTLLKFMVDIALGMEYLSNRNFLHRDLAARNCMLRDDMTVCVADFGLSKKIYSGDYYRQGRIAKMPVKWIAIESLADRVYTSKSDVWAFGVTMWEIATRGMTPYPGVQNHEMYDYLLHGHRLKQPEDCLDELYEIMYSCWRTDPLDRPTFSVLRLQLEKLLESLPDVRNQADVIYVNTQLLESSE
Method: (§1) Kinase activity and compound inhibition were investigated using the ^33P-Phosphoryl transfer radiometric kinase assay, performed using the KinaseProfiler™ service of Eurofins Pharma Discovery Services UK Limited. Dose-response experiments were performed using nine compound concentrations in a 96-well microtiter plate. For each assay, all compounds were prepared to a 50× final assay concentration (50 μM) in 100% DMSO, then diluted in a half-log series, with the final top concentration at 1 μM. This working stock of the compound was added to the assay well as the first component in the reaction, followed by the remaining components as detailed in the following assay protocols below. The positive control wells (100% kinase activity) contain all components of the reaction including 2% DMSO (control for solvent effects), except the compound of interest. Blank wells contain all components of the reaction, with the reference inhibitor, staurosporine. This reference compound was used to abolish kinase activity and generated the 0% kinase activity base-line. IC50 values were calculated by nonlinear regression analysis using the sigmoidal dose-response (variable slope) curve fit on XLFit version 5.3 (ID Business Solutions).
Human Mer (residues R557-E882 with H628Q and R794A, 0.7 nM) was incubated with 8 mM MOPS pH 7.0, 0.2 mM EDTA, 30 mM NaCl, 250 μM GGMEDIYFEFMGGKKK, 10 mM magnesium acetate and 10 μM [y-^33P-ATP]. The reaction was initiated by the addition of the Mg/ATP mix. After incubation for 40 minutes at room temperature, the reaction was stopped by the addition of phosphoric acid to a concentration of 0.5%. A reaction aliquot of 10 μL was then spotted onto a P30 filtermat and washed four times for 4 minutes in 0.425% phosphoric acid and once in methanol prior to drying and scintillation counting. Incorporated ^33P was measured using the Wallac Microbeta scintillation counter (Perkin Elmer).

[2] = target: T2, Met (Homo sapiens, UniProt P08581); experiment: Human Met kinase assay (33P-phosphoryl transfer radiometric, KinaseProfiler); parameters: Human Met (residues R974-S1390 with A1209G and V1290L, 3.4 nM); purchased Eurofins Pharma Discovery Services UK Limited (KinaseProfiler service); settings: biochemical activity; 10 μM ATP; read-out: c-Met IC50
Method: as §1
Target sequence in this assay (P08581 974-1390): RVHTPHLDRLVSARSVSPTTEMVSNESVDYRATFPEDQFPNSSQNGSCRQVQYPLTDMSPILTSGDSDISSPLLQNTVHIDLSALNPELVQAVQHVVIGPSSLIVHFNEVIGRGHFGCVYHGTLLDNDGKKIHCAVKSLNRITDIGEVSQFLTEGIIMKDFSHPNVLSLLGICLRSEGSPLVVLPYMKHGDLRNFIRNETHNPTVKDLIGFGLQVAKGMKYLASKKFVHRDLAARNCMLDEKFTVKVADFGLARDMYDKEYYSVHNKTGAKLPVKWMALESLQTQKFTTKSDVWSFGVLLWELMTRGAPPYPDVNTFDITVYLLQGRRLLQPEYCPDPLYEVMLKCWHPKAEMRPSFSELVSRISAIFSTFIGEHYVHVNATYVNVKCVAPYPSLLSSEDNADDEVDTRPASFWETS
Human Met (residues R974-S1390 with A1209G and V1290L, 3.4 nM) was incubated with 8 mM MOPS pH 7.0, 0.2 mM EDTA, 250 μM KKKGQEEEYVFIE, 1 mM sodium orthovanadate, 5 mM […], 10 mM magnesium acetate, and 10 μM [γ-^33P-ATP]. The reaction was initiated by the addition of the Mg/ATP mix. After incubation for 40 minutes at room temperature, the reaction was stopped by the addition of phosphoric acid to a concentration of 0.5%. A reaction aliquot of 10 μL was then spotted onto a P30 filtermat and washed four times for 4 minutes in 0.425% phosphoric acid and once in methanol prior to drying and scintillation counting. Incorporated ^33P was measured using the Wallac Microbeta scintillation counter (Perkin Elmer).

[3] = target: T2, Met; experiment: Met autophosphorylation ELISA in PC-3 cells; assay type: cell-based; parameters: endogenous in cells; host or cells: PC-3 prostate cancer cells (ATCC #CRL-1435); settings: cellular activity, HGF-stimulated, phospho-Met ELISA, read-out: c-Met IC50
Method in brief: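 Phospho-Met (panTyr) sandwich ELISA on lysates of PC-3 cells given 100 ng/mL HGF for 10 min after 1 h compound exposure (8-point curve, 0.3% DMSO) following 3 h serum starvation. Normalised to HGF-stimulated DMSO and reference-inhibitor wells; 4-parameter logistic IC50.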
Target sequence in this assay (P08581 25-1390): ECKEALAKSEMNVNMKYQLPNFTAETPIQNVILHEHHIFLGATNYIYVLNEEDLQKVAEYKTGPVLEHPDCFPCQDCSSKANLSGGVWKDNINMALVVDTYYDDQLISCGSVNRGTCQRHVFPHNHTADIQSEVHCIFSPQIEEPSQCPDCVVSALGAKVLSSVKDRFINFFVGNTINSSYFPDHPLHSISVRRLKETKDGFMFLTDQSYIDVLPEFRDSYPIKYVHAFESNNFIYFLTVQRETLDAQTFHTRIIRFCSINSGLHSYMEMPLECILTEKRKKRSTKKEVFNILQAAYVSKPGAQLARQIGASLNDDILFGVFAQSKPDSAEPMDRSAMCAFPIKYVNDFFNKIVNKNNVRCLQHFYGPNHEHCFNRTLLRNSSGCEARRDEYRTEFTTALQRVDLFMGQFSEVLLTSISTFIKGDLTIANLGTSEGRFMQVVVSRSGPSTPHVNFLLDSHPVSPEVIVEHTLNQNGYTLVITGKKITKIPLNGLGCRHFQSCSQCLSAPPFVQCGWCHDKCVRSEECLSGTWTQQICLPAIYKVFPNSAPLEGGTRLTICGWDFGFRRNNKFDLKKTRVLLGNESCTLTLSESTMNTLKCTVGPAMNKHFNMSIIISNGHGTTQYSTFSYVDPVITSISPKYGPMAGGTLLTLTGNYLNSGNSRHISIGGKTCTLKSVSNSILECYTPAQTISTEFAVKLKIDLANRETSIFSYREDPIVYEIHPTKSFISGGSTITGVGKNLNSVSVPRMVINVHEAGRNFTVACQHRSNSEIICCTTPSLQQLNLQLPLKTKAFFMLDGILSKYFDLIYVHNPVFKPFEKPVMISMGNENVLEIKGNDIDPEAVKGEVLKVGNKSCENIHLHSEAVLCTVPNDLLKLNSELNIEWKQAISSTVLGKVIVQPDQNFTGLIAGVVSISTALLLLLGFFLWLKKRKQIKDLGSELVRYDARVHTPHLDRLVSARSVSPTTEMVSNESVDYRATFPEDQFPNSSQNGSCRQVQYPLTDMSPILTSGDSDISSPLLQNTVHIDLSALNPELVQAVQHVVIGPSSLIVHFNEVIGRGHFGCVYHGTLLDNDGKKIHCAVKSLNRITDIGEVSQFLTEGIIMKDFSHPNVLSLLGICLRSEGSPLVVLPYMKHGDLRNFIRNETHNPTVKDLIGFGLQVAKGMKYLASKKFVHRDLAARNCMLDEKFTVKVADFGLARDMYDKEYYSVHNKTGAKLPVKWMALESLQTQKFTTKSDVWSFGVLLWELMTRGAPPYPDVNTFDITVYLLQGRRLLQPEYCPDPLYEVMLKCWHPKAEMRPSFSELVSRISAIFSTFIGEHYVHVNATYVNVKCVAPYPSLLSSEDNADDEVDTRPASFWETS

SMILES: O=C(Nc1ccc(F)cc1)C1(C(=O)Nc2ccc(Oc3ccnc4cc(-c5cnn(CC(F)(F)F)c5)ccc34)cc2)CC1 [Compound 16, 1-N′-(4-Fluorophenyl)-1-N-[4-[7-[1-(2,2,2-trifluoroethyl)pyrazol-4-yl]quinolin-4-yl]oxyphenyl]cyclopropane-1,1-dicarboxamide]
- IC50 [1]: ≤ 0.01 µM
- IC50 [2]: 0.01 to 0.1 µM
- IC50 [3]: 0.01 to 0.1 µM

SMILES: Cn1ccc(-c2ccc3c(Oc4ccc(NC(=O)C5(C(=O)Nc6ccc(F)cc6)CC5)cc4)ccnc3c2)n1 [Compound 17, 1-N′-(4-Fluorophenyl)-1-N-[4-[7-(1-methylpyrazol-3-yl)quinolin-4-yl]oxyphenyl]cyclopropane-1,1-dicarboxamide]
- IC50 [1]: ≤ 0.01 µM
- IC50 [2]: ≤ 0.01 µM
- IC50 [3]: 0.01 to 0.1 µM

SMILES: O=C(Nc1ccc(F)cc1)C1(C(=O)Nc2ccc(Oc3ccnc4cc(-c5cnn(CCO)c5)ccc34)cc2)CC1 [Compound 18, 1-N′-(4-Fluorophenyl)-1-N-[4-[7-[1-(2-hydroxyethyl)pyrazol-4-yl]quinolin-4-yl]oxyphenyl]cyclopropane-1,1-dicarboxamide]
- IC50 [1]: ≤ 0.01 µM
- IC50 [2]: ≤ 0.01 µM
- IC50 [3]: ≤ 0.01 µM

SMILES: O=C(Nc1ccc(F)cc1)C1(C(=O)Nc2ccc(Oc3ccnc4cc(-c5cnn(CCN6CCOCC6)c5)ccc34)cc2)CC1 [Compound 19, 1-N′-(4-Fluorophenyl)-1-N-[4-[7-[1-(2-morpholin-4-ylethyl)pyrazol-4-yl]quinolin-4-yl]oxyphenyl]cyclopropane-1,1-dicarboxamide]
- IC50 [1]: ≤ 0.01 µM
- IC50 [2]: ≤ 0.01 µM
- IC50 [3]: 0.01 to 0.1 µM

SMILES: CCn1cc(-c2ccc3c(Oc4ccc(NC(=O)C5(C(=O)Nc6ccc(F)cc6)CC5)cc4)ccnc3c2)cn1 [Compound 20, 1-N-[4-[7-(1-Ethylpyrazol-4-yl)quinolin-4-yl]oxyphenyl]-1-N′-(4-fluorophenyl)cyclopropane-1,1-dicarboxamide]
- IC50 [1]: ≤ 0.01 µM
- IC50 [2]: ≤ 0.01 µM
- IC50 [3]: 0.01 to 0.1 µM

SMILES: O=C(Nc1ccc(F)cc1)C1(C(=O)Nc2ccc(Oc3ccnc4cc(-c5cnn(C6CC6)c5)ccc34)cc2)CC1 [Compound 22, 1-N-[4-[7-(1-Cyclopropylpyrazol-4-yl)quinolin-4-yl]oxyphenyl]-1-N′-(4-fluorophenyl)cyclopropane-1,1-dicarboxamide]
- IC50 [1]: ≤ 0.01 µM
- IC50 [2]: ≤ 0.01 µM
- IC50 [3]: 0.01 to 0.1 µM

SMILES: CC(C)(C)n1cc(-c2ccc3c(Oc4ccc(NC(=O)C5(C(=O)Nc6ccc(F)cc6)CC5)cc4)ccnc3c2)cn1 [Compound 23, 1-N-[4-[7-(1-tert-Butylpyrazol-4-yl)quinolin-4-yl]oxyphenyl]-1-N′-(4-fluorophenyl)cyclopropane-1,1-dicarboxamide]
- IC50 [1]: ≤ 0.01 µM
- IC50 [2]: 0.01 to 0.1 µM
- IC50 [3]: 0.01 to 0.1 µM

SMILES: O=C(Nc1ccc(F)cc1)C1(C(=O)Nc2ccc(Oc3ccnc4cc(-c5cnn(C6COC6)c5)ccc34)cc2)CC1 [Compound 24, 1-N′-(4-Fluorophenyl)-1-N-[4-[7-[1-(oxetan-3-yl)pyrazol-4-yl]quinolin-4-yl]oxyphenyl]cyclopropane-1,1-dicarboxamide]
- IC50 [1]: ≤ 0.01 µM
- IC50 [2]: ≤ 0.01 µM
- IC50 [3]: ≤ 0.01 µM

SMILES: O=C(Nc1ccc(F)cc1)C1(C(=O)Nc2ccc(Oc3ccnc4cc(-c5cccnc5)ccc34)cc2)CC1 [Compound 25, 1-N′-(4-Fluorophenyl)-1-N-[4-(7-pyridin-3-ylquinolin-4-yl)oxyphenyl]cyclopropane-1,1-dicarboxamide]
- IC50 [1]: ≤ 0.01 µM
- IC50 [2]: ≤ 0.01 µM
- IC50 [3]: 0.01 to 0.1 µM

SMILES: O=C(Nc1ccc(F)cc1)C1(C(=O)Nc2ccc(Oc3ccnc4cc(-c5ccncc5)ccc34)cc2)CC1 [Compound 26, 1-N′-(4-Fluorophenyl)-1-N-[4-(7-pyridin-4-ylquinolin-4-yl)oxyphenyl]cyclopropane-1,1-dicarboxamide]
- IC50 [1]: ≤ 0.01 µM
- IC50 [2]: ≤ 0.01 µM
- IC50 [3]: ≤ 0.01 µM

SMILES: O=C(Nc1ccc(F)cc1)C1(C(=O)Nc2ccc(Oc3ccnc4cc(-c5cncnc5)ccc34)cc2)CC1 [Compound 27, 1-N′-(4-Fluorophenyl)-1-N-[4-(7-pyrimidin-5-ylquinolin-4-yl)oxyphenyl]cyclopropane-1,1-dicarboxamide]
- IC50 [1]: ≤ 0.01 µM
- IC50 [2]: ≤ 0.01 µM
- IC50 [3]: 0.01 to 0.1 µM

SMILES: O=C(Nc1ccc(F)cc1)C1(C(=O)Nc2ccc(Oc3ccnc4cc(-c5ccnnc5)ccc34)cc2)CC1 [Compound 28, 1-N′-(4-Fluorophenyl)-1-N-[4-(7-pyridazin-4-ylquinolin-4-yl)oxyphenyl]cyclopropane-1,1-dicarboxamide]
- IC50 [1]: ≤ 0.01 µM
- IC50 [2]: ≤ 0.01 µM
- IC50 [3]: ≤ 0.01 µM

SMILES: Cc1noc(C)c1-c1ccc2c(Oc3ccc(NC(=O)C4(C(=O)Nc5ccc(F)cc5)CC4)cc3)ccnc2c1 [Compound 53, 1-N-[4-[7-(3,5-Dimethyl-1,2-oxazol-4-yl)quinolin-4-yl]oxyphenyl]-1-N′-(4-fluorophenyl)cyclopropane-1,1-dicarboxamide]
- IC50 [1]: 0.01 to 0.1 µM
- IC50 [2]: 0.01 to 0.1 µM
- IC50 [3]: 0.1 to 0.3 µM

SMILES: Cn1nccc1-c1ccc2c(Oc3ccc(NC(=O)C4(C(=O)Nc5ccc(F)cc5)CC4)cc3)ccnc2c1 [Compound 54, 1-N′-(4-Fluorophenyl)-1-N-[4-[7-(2-methylpyrazol-3-yl)quinolin-4-yl]oxyphenyl]cyclopropane-1,1-dicarboxamide]
- IC50 [1]: ≤ 0.01 µM
- IC50 [2]: ≤ 0.01 µM
- IC50 [3]: 0.01 to 0.1 µM

SMILES: O=C(Nc1ccc(F)cc1)C1(C(=O)Nc2ccc(Oc3ccnc4cc(-c5cnoc5)ccc34)cc2)CC1 [Compound 57, 1-N′-(4-Fluorophenyl)-1-N-[4-[7-(1,2-oxazol-4-yl)quinolin-4-yl]oxyphenyl]cyclopropane-1,1-dicarboxamide]
- IC50 [1]: ≤ 0.01 µM
- IC50 [2]: ≤ 0.01 µM
- IC50 [3]: 0.01 to 0.1 µM

SMILES: O=C(Nc1ccc(F)cc1)C1(C(=O)Nc2ccc(Oc3ccnc4cc(-c5cnn(C6CCNCC6)c5)ccc34)cc2)CC1 [Compound 60, 1-N′-(4-Fluorophenyl)-1-N-[4-[7-(1-piperidin-4-ylpyrazol-4-yl)quinolin-4-yl]oxyphenyl]cyclopropane-1,1-dicarboxamide]
- IC50 [1]: ≤ 0.01 µM
- IC50 [2]: ≤ 0.01 µM
- IC50 [3]: 0.01 to 0.1 µM

SMILES: CN1CCC(n2cc(-c3ccc4c(Oc5ccc(NC(=O)C6(C(=O)Nc7ccc(F)cc7)CC6)cc5)ccnc4c3)cn2)CC1 [Compound 61, 1-N′-(4-Fluorophenyl)-1-N-[4-[7-[1-(1-methylpiperidin-4-yl)pyrazol-4-yl]quinolin-4-yl]oxyphenyl]cyclopropane-1,1-dicarboxamide]
- IC50 [1]: ≤ 0.01 µM
- IC50 [2]: ≤ 0.01 µM
- IC50 [3]: 0.01 to 0.1 µM

SMILES: CC(=O)N1CCC(n2cc(-c3ccc4c(Oc5ccc(NC(=O)C6(C(=O)Nc7ccc(F)cc7)CC6)cc5)ccnc4c3)cn2)CC1 [Compound 62, 1-N-[4-[7-[1-(1-Acetylpiperidin-4-yl)pyrazol-4-yl]quinolin-4-yl]oxyphenyl]-1-N′-(4-fluorophenyl)cyclopropane-1,1-dicarboxamide]
- IC50 [1]: ≤ 0.01 µM
- IC50 [2]: ≤ 0.01 µM
- IC50 [3]: 0.01 to 0.1 µM

SMILES: C[Si](C)(C)C#Cc1ccc2c(Oc3ccc(NC(=O)C4(C(=O)Nc5ccc(F)cc5)CC4)cc3)ccnc2c1 [Compound 63, 1-N′-(4-Fluorophenyl)-1-N-[4-[7-(2-trimethylsilylethynyl)quinolin-4-yl]oxyphenyl]cyclopropane-1,1-dicarboxamide]
- IC50 [1]: 0.1 to 1 µM
- IC50 [2]: 0.01 to 0.1 µM
- IC50 [3]: > 0.3 µM
